Data as given in patent US6380387B1, “4-Pyrimidinyl-n-acyl-l phenylalanines” (Hoffmann-La Roche Inc., priority 1999, dated 2002).

Columns and labels:
VLA-4 (α4β1 integrin) [1] = molecular target: T1, VLA-4 (α4β1 integrin) (Homo sapiens, UniProt P05556+P13612); test: VLA-4/VCAM-1 Screening Assay (solid-phase dual antibody ELISA); details: Ramos cell-derived VLA-4 binding to immobilized recombinant human VCAM-1
T1 construct: Ramos cells bearing cell-surface VLA-4; endogenous in cells; host or cells: Ramos cells
Protocol: VLA-4/VCAM-1 Screening Assay
VLA-4 antagonist activity, defined as ability to compete for binding to immobilized VCAM-1, was quantitated using a solid-phase, dual antibody ELISA. VLA-4 (α4β1 integrin) bound to VCAM-1 was detected by a complex of anti-integrin β1 antibody: HRP-conjugated anti-mouse IgG: chromogenic substrate (K-Blue). Initially, this entailed coating 96 well plates (Nunc Maxisorp) with recombinant human VCAM-1 (0.4 μg in 100 μl PBS), sealing each plate and then allowing the plates to stand at 4° C. for ˜18 hr. […] On the day of assay, all plates were washed twice with VCAM Assay Buffer (200 μl/well of 50 mM Tris-HCl, 100 mM NaCl, 1 mM MnCl2, 0.05% Tween 20; pH 7.4). Test compounds were dissolved in 100% DMSO and then diluted 1:20 in VCAM Assay Buffer supplemented with 1 mg/mL BSA (i.e., final DMSO=5%). A series of 1:4 dilutions were performed to achieve a concentration range of 0.005 nM-1.563 μM for each test compound. 100 μl per well of each dilution was added to the VCAM-coated plates, followed by 10 μl of Ramos cell-derived VLA-4. These plates were sequentially mixed on a platform shaker for 1 min, incubated for 2 hr at 37° C., and then washed four times with 200 μl/well VCAM Assay Buffer. 100 μl of mouse anti-human integrin β1 antibody was added to each well (0.6 μg/mL in VCAM Assay Buffer+1 mg/mL BSA) and allowed to incubate for 1 hr at 37° C. At the conclusion of this incubation period, all plates were washed four times with VCAM Assay Buffer (200 μl/well). A corresponding second antibody, HRP-conjugated goat anti-mouse IgG (100 μl per well @ 1:800 dilution in VCAM Assay Buffer+1 mg/mL BSA), was then added to each well, followed by a 1 hr incubation at room temperature and concluded by three washes (200 μl/well) with VCAM Assay Buffer. Color development was initiated by addition of 100 μl K-Blue per well (15 min incubation, room temp) and terminated by addition of 100 μl Red Stop Buffer per well. All plates were then read in a UV/Vis spectrophotometer at […]. Results were calculated as % inhibition of total binding (i.e., VLA-4+VCAM-1 in the absence of test compound). The results are provided in the following Table I (A=IC50<1 nM, B=IC50<10 nM): […]

VLA-4 (α4β1 integrin) [2] = molecular target: T1, VLA-4 (α4β1 integrin); test: Ramos (VLA-4)/VCAM-1 Cell-Based Screening Assay (cell adhesion); details: Calcein-AM labeled Ramos cells adhering to immobilized recombinant human VCAM-1
Protocol: Ramos (VLA-4)/VCAM-1 Cell-Based Screening Assay Protocol
Soluble recombinant human VCAM-1 (mixture of 5- and 7-Ig domain) was purified from CHO cell culture media by inmmunoaffinity chromatography and maintained in a solution containing 0.1 M Tris-glycine (pH 7.5), 0.1 M NaCl, 5 mM EDTA, 1 mM PMSF, […] NaN3 and 10 μg/mL leupeptin. Calcein-AM was purchased from Molecular Probes Inc.
VLA-4 (α4β1 integrin) antagonist activity, defined as ability to compete with cell-surface VLA-4 for binding to immobilized VCAM-1, was quantitated using a Ramos-VCAM-1 cell adhesion assay. Ramos cells bearing cell-surface VLA-4, were labeled with a fluorescent dye (Calcein-AM) and allowed to bind VCAM-1 in the presence or absence of test compounds. A reduction in fluorescence intensity associated with adherent cells (% inhibition) reflected competitive inhibition of VLA-4 mediated cell adhesion by the test compound.
Initially, this entailed coating 96 well plates (Nunc Maxisorp) with recombinant human VCAM-1 (100 ng in 100 μl PBS), sealing each plate and allowing the plates to stand at 4° C. for ≈18 hr. The VCAM-coated plates were subsequently washed twice with 0.05% Tween-20 in PBS, and then blocked for 1 hr (room temperature) with 200 μl of Blocking Buffer (1% BSA/0.02% thimerosal) to reduce non-specific binding. Following the incubation with Blocking Buffer, plates were inverted, blotted and the remaining buffer aspirated. Each plate was then washed with 300 μl PBS, inverted and the remaining PBS aspirated.
Test compounds were dissolved in 100% DMSO and then diluted 1:25 in VCAM Cell Adhesion Assay Buffer (4 mM CaCl2, 4 mM MgCl2 in 50 mM TRIS-HCl, pH 7.5) (final DMSO=4%). A series of eight 1:4 dilutions were performed for each compound (general concentration range of 1 nM-12,500 nM). 100 μl/well of each dilution was added to the VCAM-coated plates, followed by 100 μl of Ramos cells (200,000 cells/well in 1% BSA/PBS). Plates containing test compounds and Ramos cells were allowed to incubate for 45 min at room temperature, after which 165 μl/well PBS was added. Plates were inverted to remove non-adherent cells, blotted and 300 μl/well PBS added. Plates were again inverted, blotted and the remaining buffer gently aspirated. 100 μl Lysis Buffer (0.1% SDS in 50 mM TRIS-HCl, pH 8.5) was added to each well and agitated for 2 min on a rotary shaking platform. The plates were then read for fluorescence intensity on a Cytofluor 2300 (Millipore) fluorecence measurement system (excitation=485 nm, emission=530 nm). The results are shown in the following Table II, where (A=IC50<100 nM, B=IC50<10000 nM): […]

T1 sequence (P13612 34-1032): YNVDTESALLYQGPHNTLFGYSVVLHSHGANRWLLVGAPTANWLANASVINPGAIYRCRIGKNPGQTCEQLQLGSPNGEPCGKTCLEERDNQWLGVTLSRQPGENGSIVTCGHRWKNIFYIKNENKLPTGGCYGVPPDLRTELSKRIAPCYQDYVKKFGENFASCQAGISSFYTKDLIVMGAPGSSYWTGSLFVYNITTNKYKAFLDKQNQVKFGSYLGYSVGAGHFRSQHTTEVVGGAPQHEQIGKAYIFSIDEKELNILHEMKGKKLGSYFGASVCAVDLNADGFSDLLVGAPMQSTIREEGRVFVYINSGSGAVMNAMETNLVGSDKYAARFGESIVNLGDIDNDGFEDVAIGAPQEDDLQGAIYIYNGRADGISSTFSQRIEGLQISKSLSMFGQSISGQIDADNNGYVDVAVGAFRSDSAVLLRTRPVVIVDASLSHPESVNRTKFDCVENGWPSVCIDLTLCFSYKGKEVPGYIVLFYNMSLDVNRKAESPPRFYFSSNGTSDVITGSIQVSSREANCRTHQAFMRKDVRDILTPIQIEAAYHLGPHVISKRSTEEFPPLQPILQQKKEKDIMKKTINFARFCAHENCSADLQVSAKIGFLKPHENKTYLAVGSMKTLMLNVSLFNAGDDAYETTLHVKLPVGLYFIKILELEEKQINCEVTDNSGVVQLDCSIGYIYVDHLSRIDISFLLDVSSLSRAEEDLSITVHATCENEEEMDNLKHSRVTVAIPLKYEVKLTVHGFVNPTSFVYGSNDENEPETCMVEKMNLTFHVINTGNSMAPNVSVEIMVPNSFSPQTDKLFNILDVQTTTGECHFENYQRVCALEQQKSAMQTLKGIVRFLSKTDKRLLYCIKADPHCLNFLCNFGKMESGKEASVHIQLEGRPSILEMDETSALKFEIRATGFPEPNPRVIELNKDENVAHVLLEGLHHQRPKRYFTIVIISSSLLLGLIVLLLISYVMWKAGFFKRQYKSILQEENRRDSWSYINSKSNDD
T1 sequence (P05556 21-798): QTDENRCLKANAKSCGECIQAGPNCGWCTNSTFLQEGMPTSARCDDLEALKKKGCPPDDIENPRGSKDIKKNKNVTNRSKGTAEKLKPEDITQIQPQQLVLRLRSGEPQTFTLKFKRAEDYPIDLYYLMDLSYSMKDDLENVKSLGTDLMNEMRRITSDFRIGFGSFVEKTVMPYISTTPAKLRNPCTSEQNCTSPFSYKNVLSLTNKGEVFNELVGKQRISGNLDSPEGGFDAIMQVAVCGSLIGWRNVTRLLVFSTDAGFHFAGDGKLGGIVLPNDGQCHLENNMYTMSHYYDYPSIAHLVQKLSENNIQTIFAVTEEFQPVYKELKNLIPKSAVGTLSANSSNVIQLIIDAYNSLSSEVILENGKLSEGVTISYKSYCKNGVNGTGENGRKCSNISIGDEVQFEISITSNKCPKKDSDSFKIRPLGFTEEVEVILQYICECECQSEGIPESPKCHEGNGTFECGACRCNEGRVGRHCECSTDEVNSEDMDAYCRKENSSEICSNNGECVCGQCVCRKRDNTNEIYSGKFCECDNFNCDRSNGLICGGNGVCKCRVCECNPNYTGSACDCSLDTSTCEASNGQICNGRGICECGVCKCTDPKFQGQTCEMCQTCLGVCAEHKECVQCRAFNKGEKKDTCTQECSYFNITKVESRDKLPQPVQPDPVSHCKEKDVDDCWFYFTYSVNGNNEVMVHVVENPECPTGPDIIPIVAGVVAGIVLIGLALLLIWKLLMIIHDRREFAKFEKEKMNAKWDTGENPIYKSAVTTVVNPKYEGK

Row | SMILES | IC50 (VLA-4 (α4β1 integrin) [1]) | IC50 (VLA-4 (α4β1 integrin) [2]) | melting point
1 | Cc1cccc(Cl)c1C(=O)N[C@@H](Cc1ccc(-c2cn(C)c(=O)n(C)c2=O)cc1)C(=O)O [Example 2, N-[(2-chloro-6-methylphenyl)carbonyl]-4-(1,3-dimethyl-2,4-dioxo-5-pyrimidinyl)-L-phenylalanine] | < 1 nM | < 100 nM | 234 to 236 °C
2 | COCCC1(C(=O)N[C@@H](Cc2ccc(-c3cn(C)c(=O)n(C)c3=O)cc2)C(=O)O)CCCC1 [Example 3, 4-[(1,3-dimethyl-2,4-dioxo-5-pyrimidinyl)]-N-[[1-(2-methoxyethyl)cyclopentyl]carbonyl]-L-phenylalanine] | < 10 nM | < 100 nM | 
3 | Cc1cccc(Br)c1C(=O)N[C@@H](Cc1ccc(-c2cn(C)c(=O)n(C)c2=O)cc1)C(=O)O [Example 4, N-[(2-bromo-6-methylphenyl)carbonyl]-4-(1,3-dimethyl-2,4-dioxo-5-pyrimidinyl)-L-phenylalanine] | < 1 nM | < 100 nM | 
4 | COc1ccc(Br)c(C(=O)N[C@@H](Cc2ccc(-c3cn(C)c(=O)n(C)c3=O)cc2)C(=O)O)c1 [Example 5, N-[(2-bromo-5-methoxyphenyl)carbonyl]-4-[1,3-dimethyl-2,4-dioxo-5-pyrimidinyl]-L-phenylalanine] | < 1 nM | < 10000 nM | 
5 | Cc1c(-c2ccc(C[C@H](NC(=O)c3c(Cl)cccc3C(C)C)C(=O)O)cc2)c(=O)n(C)c(=O)n1C [Example 17, N-[[2-chloro-6-(2-methylethyl)phenyl]carbonyl]-4-(1,3,6-trimethyl-2,4-dioxo-5-pyrimidinyl)-L-phenylalanine] |  |  | 205 to 209 °C
6 | CC(=O)OC(C)OC(=O)[C@H](Cc1ccc(-c2c(C)n(C)c(=O)n(C)c2=O)cc1)NC(=O)c1c(Cl)cccc1Cl (stereo partly drawn) [Example 33, N-[(2,6-dichlorophenyl)carbonyl]-4-(1,3,6-trimethyl-2,4-dioxo-5-pyrimidinyl)-L-phenylalanine 1-(acetoxy)ethyl ester] |  | < 10000 nM | 168 to 170 °C
7 | CC(=O)OC(C)OC(=O)[C@H](Cc1ccc(-c2c(C)n(C)c(=O)n(C)c2=O)cc1)NC(=O)c1c(C)cccc1Cl (stereo partly drawn) [Example 34, N-[(2-chloro-6-methylphenyl)carbonyl]-4-(1,3,6-trimethyl-2,4-dioxo-5-pyrimidinyl)-L-phenylalanine 1-(acetoxy)ethyl ester] |  | < 10000 nM | 84 to 88 °C

The next lines start with the values.

Row | IC50 (VLA-4 (α4β1 integrin) [1]) | IC50 (VLA-4 (α4β1 integrin) [2]) | melting point | SMILES
8 |  | < 100 nM |  | CCN(CC)CCOC(=O)[C@H](Cc1ccc(-c2c(C)n(C)c(=O)n(C)c2=O)cc1)NC(=O)c1c(Cl)cccc1Cl [Example 28, N-[(2,6-dichlorophenyl)carbonyl]-4-(1,3,6-trimethyl-2,4-dioxo-5-pyrimidinyl)-L-phenylalanine 2-[(N,N-diethyl)amino]ethyl ester]
9 |  | < 100 nM |  | CCN(CC)CCOC(=O)[C@H](Cc1ccc(-c2c(C)n(C)c(=O)n(C)c2=O)cc1)NC(=O)c1c(C)cccc1Cl [Example 29, N-[(2-chloro-6-methylphenyl)carbonyl]-4-(1,3,6-trimethyl-2,4-dioxo-5-pyrimidinyl)-L-phenylalanine 2-[(N,N-diethyl)amino]ethyl ester]
10 |  | < 10000 nM |  | CCOC(=O)[C@H](Cc1ccc(-c2c(C)n(C)c(=O)n(C)c2=O)cc1)NC(=O)c1c(C)cccc1Cl [Example 30, N-[(2-chloro-6-methylphenyl)carbonyl]-4-(1,3,6-trimethyl-2,4-dioxo-5-pyrimidinyl)-L-phenylalanine ethyl ester]
11 |  | < 10000 nM | 90 to 94 °C | Cc1c(-c2ccc(C[C@H](NC(=O)c3c(Cl)cccc3Cl)C(=O)OCCN3CCOCC3)cc2)c(=O)n(C)c(=O)n1C [Example 31, N-[(2,6-dichlorophenyl)carbonyl]-4-(1,3,6-trimethyl-2,4-dioxo-5-pyrimidinyl)-L-phenylalanine 2-(4-morpholino)ethyl ester]
12 |  | < 10000 nM |  | Cc1cccc(Cl)c1C(=O)N[C@@H](Cc1ccc(-c2c(C)n(C)c(=O)n(C)c2=O)cc1)C(=O)OCCN1CCOCC1 [Example 32, N-[(2-chloro-6-methylphenyl)carbonyl]-4-(1,3,6-trimethyl-2,4-dioxo-5-pyrimidinyl)-L-phenylalanine 2-(4-morpholino)ethyl ester]
13 |  | < 100 nM |  | Cc1c(-c2ccc(C[C@H](NC(=O)[C@@H]3CCCN3)C(=O)O)cc2)c(=O)n(C)c(=O)n1C [Example 35, L-prolyl-4-(1,3,6-trimethyl-2,4-dioxo-5-pyrimidinyl)-L-phenylalanine]
